Data from US20070117157A1, “Parathyroid hormone-like polypeptides” (priority 2002, published 2007).
“Also recorded” adds a separate entry of the source. One block for each substance: values may come before it.

Columns and labels:
[1] = target: PTH-1R (UniProt P25961); test: cell-based or functional assay
[2] = test system: UMR106.01 cells; test: cAMP production (adenylate cyclase response) in UMR106.01 cells; type: cell-based; conditions: for cAMP formation by the peptide alone: FIG. 5A/5B; for maximum amplitude of cAMP response: compared with other peptides at highest concentrations
Protocol: The PTH-like biological activity of the peptides was assayed by measuring cyclic adenosine 3′,5′-monophosphate (cAMP) production in UMR106.01 cells (Forrest et al, Calcif Tissue Int, 37:52-56 (1985)), grown to 90% confluence. Prior to assaying, the cells were washed once with phosphate buffered saline (PBS) and equilibrated for 20 mins in medium containing 0.1% BSA and lmM-isobutylmethylxanthine (Sigma, St Louis, USA). Cells were subsequently stimulated at 37° C for 10 mins in the absence and presence of increasing hormone concentrations. The cells were then washed once with PBS and cAMP was extracted with 1.5 ml acidified ethanol. Samples were evaporated to dryness, reconstituted in assay buffer and assayed by a specific cAMP radioimmunoassay (Houssami et al, Endocrine J. 2:127-134 (1994)).

[3] = test system: bones of male Sprague-Dawley rats; test: Anabolic effect on bones of rats (histomorphometry of proximal tibiae); type: in vivo, rat; conditions: for osteoblast number per unit osteoid surface: FIG. 10; for histomorphometric markers of bone resorption: FIG. 11
Protocol: The anabolic effect of Fugu PTH was assessed in the bones of 50-60 g male Sprague-Dawley rats (3-4 weeks old).
Rats were subcutaneously administered a low or high dose (3 or 10 gg) of Fugu PTH(1-34) per 100 g body weight each day for 30 days. The synthetic PTH peptides were dissolved in 0.01M acetic acid and then daily injections were prepared in normal saline with 2% rat serum (from male Sprague-Dawley rats). The rats were weighed twice a week and the PTH dose adjusted for the increasing weight of each animal.
There were 12 rats in each of the following treatment groups: control, human PTH (low or high dose) and Fugu PTH (low or high dose). Rats were euthanased using asphyxiation and tibiae were removed, leaving most of the muscle on the bone. The samples were placed into freshly prepared 4% paraformaldehyde. They were fixed for 24 hours and then transferred to 70% ethanol in preparation for histomorphometry.
Fixed tibiae were X-rayed and embedded in methylmethacrylate resin as follows: Tibiae were cleaned of muscle, then bisected transversely and trimmed approximately 2 mm on each side using a water cooled slow speed bench saw to provide a flat surface for embedding, parallel to the sagittal midline. Fixed tibiae were dehydrated in acetone by hourly changes of 70% acetone, 90% acetone and 100% acetone (×2). After dehydration, samples were infiltrated with methylmethacrylate resin (85% methylmethacrylate, 15% dibutylphthalate, 0.05% benzoyl peroxide) twice for at least 3 days (minimum total of 6 days). For at least one day of the infiltration procedure, samples were infiltrated under vacuum at room temperature; all other steps were carried out at 4° C. After infiltration, tibiae were embedded in glass scintillation vials on a polymerised methylmethacrylate base in methylmethacrylate resin (85% methylmethacrylate, 15% dibuylphthalate, 3% benzoyl peroxide) in a waterbath in a 37° C. incubator over 48 hours. After polymerisation, a third layer of methacrylate was included (same components as above plus acrylic resin beads) and allowed to polymerise over another 48 hours. After samples were fully polymerised, they were cooled at −20° C. to allow polymer contraction, before the embedded tibiae were released from the glass vials by smashing them with a hammer. Polymerised tibiae were then ground on an electric grinder/ polisher to expose the bone surface, and provide a squared block to sit securely in a microtome. 5 μm sections were cut on a Leica 2165 microtome, spread with 95% ethanol and adhered to glass microscope slides by clamping overnight at 37° C. separated by pieces of bagging plastic. Fully adhered sections were deplasticised in cellosolve for 2×25 minutes, dehydrated in graded ethanols and stained with toluidine blue for standard histomorphometry. Von Kossa staining was carried out to provide composite images.
Histomorphometry was carried out according to standard procedures using the Osteomeasure Image analysis system (Osteometrics, Decatur, Ga.) in the secondary spongiosa, starting 3 mm below the growth plate in a region 3 mm wide by 1.1 mm high. Data was analysed by one-way ANOVA followed by Tukey's post-hoc test to locate significant differences.

[4] = test system: PTH-3R; conditions: zebrafish PTH-3R, Rubin et al; cited from earlier work
[5] = test system: polyclonal antisera raised against human PTHrP(1-14), human PTHrP(1-141) and hPTH(1-34); test: Immunoblots (dot blots) with anti-human PTHrP and anti-human PTH antisera; type: binding, rabbit; conditions: 10, 25, 50 μg spotted, data not shown
Source text: Seven antisera (R88, R1904, R1942, R87, R1348, R196, R212) were raised against human PTHrP(1-14) and one antiserum (R190) was raised against human PTHrP(1-141). The anti-PTH polyclonal antibody was raised against hPTH(1-34)(BioGenex, San Ramon, USA). The anti-human PTHrP antisera have been used successfully in immunohistochemistry and Western blotting with tissues taken from bony and cartilaginous fishes (Danks et al, Gen Comp Endocrinol, 92:201-212 (1993); Ingleton et al, Gen Comp Endocrinol 98:211-218 (1995)). The anti-PTH antiserum has been used in immunohistochemistry of human parathyroid material and Western blotting (Danks et al, J Pathol, 161:27-33 (1993)). 10, 25, 50 μg of Fugu PTH were spotted along side a positive control, (ie human PTHrP(I-34)), on nitrocellulose membrane (Schleicher & Schuell, Dassel, Germany). After an initial incubation period with Tris buffered saline, 0.2% Tween, 5% skim milk powder to block non specific binding sites, the nitrocellulose membrane was incubated with primary polyclonal antibody, followed by secondary antibody (anti-rabbit serum conjugated to horseradish peroxidase (Dako, Carpenteria, USA)) incubation. Three washes on a shaker table were done in between incubations. A BM chemiluminescence blotting system (Roche Applied Sciences, Mannheim, Germany) was used to detect specific dot blots.

[6] = high dose 10 microgram/100 gram body weight/day
[7] = 10 microgram/100 gram body weight/day, 30 days, vs untreated control

Sequence of UniProt P25961 (P25961 27-591 limits assumed): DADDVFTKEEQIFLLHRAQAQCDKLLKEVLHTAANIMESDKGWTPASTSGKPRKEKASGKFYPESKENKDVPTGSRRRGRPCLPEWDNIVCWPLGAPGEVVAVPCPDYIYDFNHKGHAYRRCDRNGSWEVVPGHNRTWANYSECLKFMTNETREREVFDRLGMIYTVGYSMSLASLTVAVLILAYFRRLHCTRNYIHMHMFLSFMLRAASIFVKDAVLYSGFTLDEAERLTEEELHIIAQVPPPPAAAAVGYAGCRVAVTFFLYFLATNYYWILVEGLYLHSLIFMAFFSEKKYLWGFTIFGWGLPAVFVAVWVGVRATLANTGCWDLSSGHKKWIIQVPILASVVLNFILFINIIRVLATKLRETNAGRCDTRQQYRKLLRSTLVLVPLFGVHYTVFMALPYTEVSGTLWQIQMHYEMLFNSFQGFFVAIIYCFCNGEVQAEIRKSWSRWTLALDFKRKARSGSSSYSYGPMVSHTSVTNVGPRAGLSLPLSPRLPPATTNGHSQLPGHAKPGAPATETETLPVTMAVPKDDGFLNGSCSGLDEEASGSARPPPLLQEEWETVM

ID50 of adenylate cyclase response (FIG. 5B), UMR106.01 cells [1]: 1.5 nM
ID50 of cAMP formation in UMR106.01 cells [1]: 1.4 nM
Substance: Fugu PTHrP(1-34) (peptide)

Substance: human PTHrP(7-34): human parathyroid hormone-related protein fragment 7-34, co-incubated as inhibitor of the cAMP response [reference compound]
inhibition of the cAMP response to agonist peptides ([2]; increasing concentrations co-incubated with 10 nM Fugu PTH(1-34), 1 nM human PTH(1-34), 0.5 nM Fugu PTHrP(1-34) or 0.5 nM human PTHrP(1-34), data not shown): partial inhibition of the cAMP response

Substance: human PTH: human parathyroid hormone, comparator peptide in rats (low or high dose); fragment length not stated there [reference compound]
osteoclastogenesis ([3]; 10 microgram/100 gram): mild reduction in osteoclastogenesis
histomorphometric markers of bone formation (osteoblast number and surface) ([3]; dose not specified in legend, FIG. 9): significantly elevated
osteoblast number per unit osteoid surface [3, 6]: significantly increased
histomorphometric markers of bone resorption [3, 6]: significantly reduced
fold less potent than human PTHrP or Fugu PTHrP in receptor activation [4]: 20 fold

Substance: TVSEVQLMHNLGEHKQVQERREWLQRRLHGIHPIGLNNDDEPGWGRKGIASRELPNLRDLTPEEIQNALNVLEELLKSQE [Fugu PTH(1-34)]
potency in cAMP assay relative to other peptides [2]: less potent than human PTH(1-34), human PTHrP(1-34) and Fugu PTHrP(1-34)
adenylate cyclase activity on co-incubation with Fugu PTHrP(1-34) ([2]; 100 nM Fugu PTH(1-34) with maximal dose 10 nM Fugu PTHrP(1-34), data not shown): no further increase in adenylate cyclase activity was observed
cAMP formation by the peptide alone [2]: stimulated cAMP formation
potency relative to human PTH or PTHrP ([2]; adenylate cyclase activation on a mammalian target cell): about one-fifth to one-tenth
maximum amplitude of cAMP response [2]: higher amplitude of maximum cAMP response than Fugu PTHrP(1-34); also recorded: significantly greater than that achieved with the highest concentrations of human PTH, human PTHrP or Fugu PTHrP
cross-reactivity with antisera against human PTHrP and human PTH [5]: does not cross-react; also recorded: is not recognised by any of the human PTH or human PTHrP antisera
trabecular bone volume [3, 7]: significant increase
trabecular number [3, 7]: significant increase
trabecular separation [3, 7]: without a reduction
trabecular thickness [3, 7]: significant increase
osteoblast generation ([3]; 10 micrograms/100 grams): increased osteoblast generation
anabolic effect on bone ([3]; 10 micrograms/100 grams, young growing rats): anabolic in young growing rats
histomorphometric markers of bone resorption ([3]; dose not specified): not significantly altered
osteoclast number [3, 6]: trend for reduced osteoclast numbers but this did not reach statistical significance; also recorded: trend towards reduced osteoclast number
osteoblast number per unit osteoid surface [3, 6]: significantly increased
osteoblast proliferation ([3]; low dose 3 microgram/100 gram body weight/day, FIG. 9): trend towards increased osteoblast proliferation
osteoblast number per unit osteoid surface ([3]; low dose 3 microgram/100 gram body weight/day): significantly increased
bone mass / trabecular density in proximal tibiae ([3]; young rats, s.c. daily for 30 days, 3 or 10 microgram/100 gram body weight/day, FIG. 6): increases bone mass in young rats; also recorded: apparent elevation of trabecular density

Substance: Fugu PTH(1-32): synthetic fragment, amino acids 1-32 of Fugu PTH (TVSEVQLMHNLGEHKQVQERREWLQRRLHGIH)
cAMP formation by the peptide alone [2]: stimulated cAMP formation
maximum amplitude of cAMP response [2]: higher amplitude of maximum cAMP response than Fugu PTHrP(1-34)
